From ChEMBL document CHEMBL1201862, “PubChem BioAssay data set” (2004)
Active and inactive are the calls of the source.

How the values were obtained:
X-box-binding protein 1 = molecular target: T1, X-box-binding protein 1 (Homo sapiens, UniProt P17861); format: functional, Cricetulus griseus;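 note: confirmatory dose-response counter-screen serving a CHOP assay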
T1 sequence (P17861 whole entry): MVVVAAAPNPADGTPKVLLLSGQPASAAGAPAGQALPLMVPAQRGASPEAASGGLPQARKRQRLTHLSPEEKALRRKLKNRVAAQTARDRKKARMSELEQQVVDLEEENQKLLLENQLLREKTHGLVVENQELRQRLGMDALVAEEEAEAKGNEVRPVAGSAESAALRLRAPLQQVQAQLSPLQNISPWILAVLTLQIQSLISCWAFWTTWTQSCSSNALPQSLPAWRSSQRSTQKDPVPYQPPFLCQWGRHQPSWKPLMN

HEK293 [1] = assay: cells; format: functional, cell-based; conditions: Homo sapiens
HEK293 [2] = assay: inhibition of NOD1-driven NF-kB reporter – cell-based, luminescence, uHTS, primary screen (AID 1578); format: functional; conditions: Homo sapiens
HEK293 [3] = assay: cells; format: functional, cell-based; conditions: Homo sapiens; remark: listed apart in the source
Tumor necrosis factor = Tumor necrosis factor (Homo sapiens, UniProt P01375); assay: analog potency on TNFa NF-kB signaling – cell-based, revised, SAR follow-up (AID 2337); format: functional
Sequence of Tumor necrosis factor (P01375 whole entry, the tested form may be a part): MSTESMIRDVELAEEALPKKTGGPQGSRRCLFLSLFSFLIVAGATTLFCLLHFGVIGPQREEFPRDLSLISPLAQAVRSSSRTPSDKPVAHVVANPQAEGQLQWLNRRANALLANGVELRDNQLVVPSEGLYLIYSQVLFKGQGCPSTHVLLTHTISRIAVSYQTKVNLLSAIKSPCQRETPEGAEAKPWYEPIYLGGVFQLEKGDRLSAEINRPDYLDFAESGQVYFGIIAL

[4] = molecular target: T2, Nucleotide-binding oligomerization domain-containing protein 1 (Homo sapiens, UniProt Q9Y239); assay: blockers of NOD1 pathway activity – revised, SAR follow-up (AID 2333); format: functional
T2 sequence (Q9Y239 whole entry): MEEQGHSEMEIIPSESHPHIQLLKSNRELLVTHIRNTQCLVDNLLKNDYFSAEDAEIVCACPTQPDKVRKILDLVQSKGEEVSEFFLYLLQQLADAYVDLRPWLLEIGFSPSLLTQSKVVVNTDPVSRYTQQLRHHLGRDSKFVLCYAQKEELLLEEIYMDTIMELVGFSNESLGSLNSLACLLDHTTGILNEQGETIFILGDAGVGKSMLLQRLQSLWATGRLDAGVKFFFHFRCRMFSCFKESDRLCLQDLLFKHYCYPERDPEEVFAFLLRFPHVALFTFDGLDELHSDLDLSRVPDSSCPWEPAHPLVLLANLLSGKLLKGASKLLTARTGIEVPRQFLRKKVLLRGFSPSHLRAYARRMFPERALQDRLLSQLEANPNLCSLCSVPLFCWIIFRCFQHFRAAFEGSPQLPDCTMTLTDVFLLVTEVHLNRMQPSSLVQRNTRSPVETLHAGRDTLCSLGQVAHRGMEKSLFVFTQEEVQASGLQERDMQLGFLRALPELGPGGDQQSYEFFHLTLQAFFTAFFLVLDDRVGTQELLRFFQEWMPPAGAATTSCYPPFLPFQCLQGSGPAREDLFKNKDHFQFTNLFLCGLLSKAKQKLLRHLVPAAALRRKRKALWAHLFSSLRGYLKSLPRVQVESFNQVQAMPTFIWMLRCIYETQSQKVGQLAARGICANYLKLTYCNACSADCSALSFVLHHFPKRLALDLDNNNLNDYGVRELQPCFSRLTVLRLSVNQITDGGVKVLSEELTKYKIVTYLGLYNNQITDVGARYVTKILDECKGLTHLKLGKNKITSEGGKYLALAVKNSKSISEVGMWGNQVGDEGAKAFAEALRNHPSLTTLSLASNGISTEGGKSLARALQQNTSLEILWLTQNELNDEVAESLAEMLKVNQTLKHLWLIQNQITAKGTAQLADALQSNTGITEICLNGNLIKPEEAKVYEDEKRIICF

HEK293 [5] = assay: NOD2 signaling inhibitors in MDP-stimulated cells, cell-based, uHTS, luminescence (AID 2001); format: functional; conditions: Homo sapiens
HEK293 [6] = assay: cells; conditions: Homo sapiens
HEK293 [7] = assay: cells; format: functional, cell-based; conditions: Homo sapiens; remark: listed apart in the source
[8] = molecular target: Nucleotide-binding oligomerization domain-containing protein 2 (Homo sapiens, UniProt Q9HC29); assay: inhibition of NOD2-driven NF-kB reporter – cell-based, luminescence, uHTS, HEK293 (AID 1566); format: functional
Sequence of Nucleotide-binding oligomerization domain-containing protein 2 (Q9HC29 whole entry, the tested form may be a part): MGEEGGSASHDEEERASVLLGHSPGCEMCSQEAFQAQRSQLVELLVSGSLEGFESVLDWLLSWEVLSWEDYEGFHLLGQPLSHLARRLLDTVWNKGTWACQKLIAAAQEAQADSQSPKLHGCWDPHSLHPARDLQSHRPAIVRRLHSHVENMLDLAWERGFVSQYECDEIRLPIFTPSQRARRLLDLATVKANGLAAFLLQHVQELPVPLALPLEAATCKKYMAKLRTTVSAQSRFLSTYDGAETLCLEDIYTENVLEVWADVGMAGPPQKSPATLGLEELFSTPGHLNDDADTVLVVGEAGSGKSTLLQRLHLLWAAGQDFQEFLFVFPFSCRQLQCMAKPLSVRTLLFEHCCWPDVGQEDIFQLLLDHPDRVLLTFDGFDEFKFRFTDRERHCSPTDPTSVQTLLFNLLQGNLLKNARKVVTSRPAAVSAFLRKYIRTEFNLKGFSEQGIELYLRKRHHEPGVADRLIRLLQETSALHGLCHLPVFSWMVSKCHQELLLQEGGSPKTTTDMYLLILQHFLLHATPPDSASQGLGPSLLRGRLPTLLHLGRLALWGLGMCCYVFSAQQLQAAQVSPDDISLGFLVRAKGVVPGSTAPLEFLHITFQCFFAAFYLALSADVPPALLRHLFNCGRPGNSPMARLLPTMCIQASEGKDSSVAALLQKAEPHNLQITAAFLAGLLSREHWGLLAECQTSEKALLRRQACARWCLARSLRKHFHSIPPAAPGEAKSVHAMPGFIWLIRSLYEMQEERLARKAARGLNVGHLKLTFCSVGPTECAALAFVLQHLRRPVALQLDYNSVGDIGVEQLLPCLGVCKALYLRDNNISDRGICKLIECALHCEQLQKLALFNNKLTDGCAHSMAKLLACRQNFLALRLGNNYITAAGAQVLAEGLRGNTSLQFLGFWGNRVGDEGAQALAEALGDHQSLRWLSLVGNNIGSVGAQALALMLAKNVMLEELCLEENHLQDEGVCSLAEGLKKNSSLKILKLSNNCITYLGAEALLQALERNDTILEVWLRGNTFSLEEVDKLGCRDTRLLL

H4 = assay: Luminescence Cell-Based Dose Response HTS to Identify Activators of 5'UTR Stem-Loop Driven Prion Protein mRNA Translation in H4 Neuroglioblastoma Cells. [Related pubchem assays: 1829 (Project Summary), 1814 (Primary HTS)]; format: functional; conditions: Homo sapiens
[9] = decrease of insulin promoter-GFP reporter – imaging, high-content screening, mouse beta cells (AID 1628); format: functional; conditions: MIN6
[10] = MIN6 cell viability loss – mouse insulinoma, cytotoxicity control, dose response (AID 2122); format: functional;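 note: confirmatory high-throughput counterscreen run to flag cytotoxic compounds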
[11] = Luminescence Cell-Based Dose Confirmation HTS to Identify Activators of 5'UTR Stem-Loop Driven Alpha-Synuclein mRNA Translation in H4 Neuroglioblastoma Cells. [Related pubchem assays: 1829 (Project Summary), 1814 (Primary HTS)]; format: functional
[12] = microbe, parasite or virus in culture; format: functional; conditions: Mycobacterium tuberculosis
[13] = molecular target: Disintegrin and metalloproteinase domain-containing protein 17 (Homo sapiens, UniProt P78536); assay: exosite inhibitors of ADAM17, dose response, biochemical (AID 743260)
Sequence of Disintegrin and metalloproteinase domain-containing protein 17 (P78536 whole entry, the tested form may be a part): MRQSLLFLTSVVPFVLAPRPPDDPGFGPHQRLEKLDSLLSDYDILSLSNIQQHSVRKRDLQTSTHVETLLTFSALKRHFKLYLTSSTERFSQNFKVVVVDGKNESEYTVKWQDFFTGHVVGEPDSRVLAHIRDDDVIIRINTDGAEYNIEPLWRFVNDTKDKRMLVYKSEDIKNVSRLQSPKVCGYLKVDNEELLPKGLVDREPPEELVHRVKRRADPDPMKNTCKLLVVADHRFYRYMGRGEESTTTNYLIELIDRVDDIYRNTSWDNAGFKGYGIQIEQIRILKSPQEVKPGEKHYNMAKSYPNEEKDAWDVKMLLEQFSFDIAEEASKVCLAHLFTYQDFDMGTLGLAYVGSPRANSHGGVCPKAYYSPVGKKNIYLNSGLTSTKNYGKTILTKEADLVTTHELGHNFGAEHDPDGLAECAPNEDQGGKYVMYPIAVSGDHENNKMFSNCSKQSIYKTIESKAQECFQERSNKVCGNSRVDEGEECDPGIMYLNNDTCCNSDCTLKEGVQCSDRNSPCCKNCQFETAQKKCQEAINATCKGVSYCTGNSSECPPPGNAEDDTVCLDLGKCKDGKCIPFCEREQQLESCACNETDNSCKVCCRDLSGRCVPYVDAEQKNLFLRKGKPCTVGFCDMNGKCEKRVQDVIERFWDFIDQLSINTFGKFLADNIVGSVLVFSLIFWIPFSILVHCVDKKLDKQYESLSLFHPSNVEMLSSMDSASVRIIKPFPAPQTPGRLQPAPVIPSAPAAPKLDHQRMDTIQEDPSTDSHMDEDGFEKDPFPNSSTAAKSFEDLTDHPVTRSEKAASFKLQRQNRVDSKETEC

INS1 = assay: INS-1E survival protection against cytokine death – cell-based, luminescence, retest, dose response (AID 449756); format: functional; conditions: Rattus norvegicus;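 note: cell death triggered by IL-1 beta plus TNF-alpha plus IFN-gamma mixture; protective hits raise ATP signal compared with cytokine alone wells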
[14] = inhibition of ADAM10 peptide cleavage – biochemical, FRET peptide substrate, recombinant human ADAM10, selectivity assay for ADAM17 exosite inhibitor project, dose response (AID 743259);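 note: ADAM10 enzyme cleaving a FRET peptide substrate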
[15] = Luminescence Cell-Based Dose Response HTS to Identify Activators of Luciferase Translation or Activity in H4 […] Cells. [Related pubchem assays: 1829 (Project Summary), 1814 (Primary HTS)]; format: functional
[16] = viability of uninfected HEp-2 cells – cell-based, HTS, cytotoxicity control for RSV inhibitor project, dose response (AID 2410); format: functional; conditions: human respiratory syncytial virus
[17] = molecular target: T3, Intestinal-type alkaline phosphatase (Homo sapiens, UniProt P09923); assay: human intestinal alkaline phosphatase activators, dose response, biochemical, luminescence, uHTS hits (AID 463120); format: functional
T3 sequence (P09923 whole entry): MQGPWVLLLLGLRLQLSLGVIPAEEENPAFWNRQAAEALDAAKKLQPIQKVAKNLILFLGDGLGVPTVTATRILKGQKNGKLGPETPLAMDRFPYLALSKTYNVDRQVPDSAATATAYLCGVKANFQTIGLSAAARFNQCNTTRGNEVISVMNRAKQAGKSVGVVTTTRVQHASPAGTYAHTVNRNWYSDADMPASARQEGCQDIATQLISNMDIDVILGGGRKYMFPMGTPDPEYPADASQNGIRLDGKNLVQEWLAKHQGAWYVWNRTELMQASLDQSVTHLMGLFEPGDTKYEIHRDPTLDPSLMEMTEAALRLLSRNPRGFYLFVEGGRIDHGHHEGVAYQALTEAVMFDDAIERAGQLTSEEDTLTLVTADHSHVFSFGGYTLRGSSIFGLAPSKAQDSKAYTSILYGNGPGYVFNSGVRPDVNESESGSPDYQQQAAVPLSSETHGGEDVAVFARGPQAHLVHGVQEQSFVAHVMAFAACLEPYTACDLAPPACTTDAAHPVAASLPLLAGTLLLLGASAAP

[18] = molecular target: T4, Alkaline phosphatase, tissue-nonspecific isozyme (Homo sapiens, UniProt P05186); assay: activation of tissue-nonspecific alkaline phosphatase – biochemical, TNAP isozyme, human IAP uHTS hits, selectivity assay for human IAP activator project, dose response (AID 488886); format: functional;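 note: potency of compounds raising TNAP activity as a selectivity check on IAP activators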
T4 sequence (P05186 whole entry): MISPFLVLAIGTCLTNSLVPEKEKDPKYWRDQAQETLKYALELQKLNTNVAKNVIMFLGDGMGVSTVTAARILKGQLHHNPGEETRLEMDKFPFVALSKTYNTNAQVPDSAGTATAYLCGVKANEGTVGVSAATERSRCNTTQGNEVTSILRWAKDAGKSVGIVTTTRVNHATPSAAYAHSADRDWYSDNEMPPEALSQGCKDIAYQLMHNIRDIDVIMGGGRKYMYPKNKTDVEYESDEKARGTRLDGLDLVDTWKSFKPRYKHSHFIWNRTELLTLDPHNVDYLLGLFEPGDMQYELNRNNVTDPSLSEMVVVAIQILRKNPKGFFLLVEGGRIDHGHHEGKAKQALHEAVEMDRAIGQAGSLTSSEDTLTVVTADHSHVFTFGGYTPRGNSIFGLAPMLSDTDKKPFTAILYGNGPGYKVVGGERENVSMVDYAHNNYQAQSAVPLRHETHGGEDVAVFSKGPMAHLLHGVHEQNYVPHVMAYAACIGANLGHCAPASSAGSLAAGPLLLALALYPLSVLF

[19] = molecular target: T5, Heat shock factor protein 1 (Mus musculus, UniProt P38532); assay: decrease of HSF1-responsive luciferase luminescence – cell-based, NIH3T3, dose retest, confirmation (AID 2382); format: functional;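 note: NIH3T3 fibroblasts with HSF1-driven luciferase reporter stressed by proteasome inhibitor MG132; luminescence from HSF1-driven luciferase expression after 8 hours of MG132 stress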
T5 sequence (P38532 whole entry): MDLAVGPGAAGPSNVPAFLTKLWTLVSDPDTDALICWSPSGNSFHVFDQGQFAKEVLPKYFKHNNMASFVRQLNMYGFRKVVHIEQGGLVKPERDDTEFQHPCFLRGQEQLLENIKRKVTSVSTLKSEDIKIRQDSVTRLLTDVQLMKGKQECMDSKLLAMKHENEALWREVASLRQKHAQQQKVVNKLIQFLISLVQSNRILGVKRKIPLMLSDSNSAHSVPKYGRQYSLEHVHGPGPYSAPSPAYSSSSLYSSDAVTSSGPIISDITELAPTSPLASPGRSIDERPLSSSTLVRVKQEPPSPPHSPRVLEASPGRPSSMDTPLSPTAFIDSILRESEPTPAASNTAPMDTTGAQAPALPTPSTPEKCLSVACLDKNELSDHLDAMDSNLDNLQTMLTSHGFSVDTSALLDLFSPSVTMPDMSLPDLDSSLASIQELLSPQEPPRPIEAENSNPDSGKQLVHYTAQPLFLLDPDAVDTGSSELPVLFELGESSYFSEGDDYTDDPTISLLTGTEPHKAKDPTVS

Albumin = Albumin (Bos taurus, UniProt P02769); assay: Counterscreen for inhibitors of T-cell receptor (TCR)-CD3 interaction: Fluorescence-based biochemical high throughput dose response assay to identify inhibitors of T-cell receptor (TCR)-CD3 interaction using a TAMRA-labeled BSA probe.; format: functional
Sequence of Albumin (P02769 whole entry): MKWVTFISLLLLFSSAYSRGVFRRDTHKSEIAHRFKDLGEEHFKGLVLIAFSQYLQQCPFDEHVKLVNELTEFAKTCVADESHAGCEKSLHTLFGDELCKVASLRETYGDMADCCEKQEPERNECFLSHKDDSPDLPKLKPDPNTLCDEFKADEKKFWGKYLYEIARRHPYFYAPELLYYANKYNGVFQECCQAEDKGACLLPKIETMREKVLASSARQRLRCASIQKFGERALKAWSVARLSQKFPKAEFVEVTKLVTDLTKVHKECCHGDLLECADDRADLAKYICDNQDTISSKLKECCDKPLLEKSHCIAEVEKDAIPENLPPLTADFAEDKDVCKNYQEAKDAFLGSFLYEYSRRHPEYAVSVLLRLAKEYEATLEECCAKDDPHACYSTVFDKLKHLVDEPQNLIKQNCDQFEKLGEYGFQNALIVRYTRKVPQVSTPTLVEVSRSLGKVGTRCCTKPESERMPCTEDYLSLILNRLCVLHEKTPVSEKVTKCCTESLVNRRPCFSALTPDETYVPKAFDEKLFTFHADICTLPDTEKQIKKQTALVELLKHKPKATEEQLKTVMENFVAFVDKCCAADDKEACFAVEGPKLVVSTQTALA

Nonstructural protein 1 = Nonstructural protein 1 (Influenza A virus, UniProt Q194T2); format: functional, Influenza A virus (A/California/07/2009(H1N1))
Sequence of Nonstructural protein 1 (Q194T2 whole entry): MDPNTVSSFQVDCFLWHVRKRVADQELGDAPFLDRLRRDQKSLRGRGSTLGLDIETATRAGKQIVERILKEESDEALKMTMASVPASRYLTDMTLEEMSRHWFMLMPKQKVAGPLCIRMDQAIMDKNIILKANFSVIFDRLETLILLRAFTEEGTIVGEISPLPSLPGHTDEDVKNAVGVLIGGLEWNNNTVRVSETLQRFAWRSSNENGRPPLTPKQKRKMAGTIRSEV

[20] = molecular target: Intestinal-type alkaline phosphatase (Mus musculus, UniProt P24822); assay: PubChem AID 488874; format: functional
Sequence of Intestinal-type alkaline phosphatase (Mus musculus, UniProt P24822) (P24822 whole entry): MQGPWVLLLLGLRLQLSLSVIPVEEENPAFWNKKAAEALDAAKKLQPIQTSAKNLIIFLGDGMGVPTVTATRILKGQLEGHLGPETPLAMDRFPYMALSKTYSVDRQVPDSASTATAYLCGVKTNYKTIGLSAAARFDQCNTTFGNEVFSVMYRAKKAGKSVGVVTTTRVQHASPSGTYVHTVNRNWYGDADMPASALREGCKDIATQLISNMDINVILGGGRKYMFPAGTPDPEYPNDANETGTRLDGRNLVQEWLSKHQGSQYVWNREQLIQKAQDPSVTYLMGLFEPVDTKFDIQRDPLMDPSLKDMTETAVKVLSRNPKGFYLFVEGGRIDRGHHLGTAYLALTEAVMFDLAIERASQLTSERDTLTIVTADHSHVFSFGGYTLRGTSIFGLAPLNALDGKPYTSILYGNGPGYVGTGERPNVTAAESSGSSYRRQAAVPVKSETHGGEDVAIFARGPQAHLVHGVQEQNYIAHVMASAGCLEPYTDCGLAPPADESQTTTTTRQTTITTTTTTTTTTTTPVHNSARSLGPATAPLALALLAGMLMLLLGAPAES

[21] = test system: Streptococcus sp. 'group A'; assay: Streptococcus pyogenes SK(-)GAS viability under kanamycin – luminescence, BacTiterGlo, confirmation, counter-screen for streptokinase expression inhibitor project, dose response (AID 1900); format: functional, organism-based
Streptococcus = assay: GAS UMAA2166 growth inhibition – luminescence, BacTiterGlo, counter-screen for streptokinase expression inhibitor project, dose response (AID 1915); format: functional, organism-based;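 note: potency for reduction of bacterial viability or growth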
[22] = molecular target: T3, Intestinal-type alkaline phosphatase; assay: activation of human intestinal alkaline phosphatase – biochemical, luminescent, uHTS hits, set 2, dose response (AID 488817); format: functional;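 note: potency of activators that raise enzyme activity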
[23] = molecular target: Induced myeloid leukemia cell differentiation protein Mcl-1 (Homo sapiens, UniProt Q07820); format: functional
Sequence of Induced myeloid leukemia cell differentiation protein Mcl-1 (Q07820 whole entry): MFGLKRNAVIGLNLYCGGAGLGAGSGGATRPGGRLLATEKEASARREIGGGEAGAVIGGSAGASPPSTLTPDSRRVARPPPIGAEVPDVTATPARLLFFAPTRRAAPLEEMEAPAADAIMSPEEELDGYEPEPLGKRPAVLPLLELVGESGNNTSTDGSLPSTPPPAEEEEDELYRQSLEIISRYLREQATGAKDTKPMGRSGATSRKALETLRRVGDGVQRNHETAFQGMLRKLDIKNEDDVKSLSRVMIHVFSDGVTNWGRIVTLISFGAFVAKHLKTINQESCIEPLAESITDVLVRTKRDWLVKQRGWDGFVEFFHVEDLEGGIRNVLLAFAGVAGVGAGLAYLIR

[24] = molecular target: T4, Alkaline phosphatase, tissue-nonspecific isozyme; assay: inhibition of tissue-nonspecific alkaline phosphatase – biochemical, dose response (AID 488882); format: functional
[25] = molecular target: T6, Rac GTPase-activating protein 1 (Homo sapiens, UniProt Q9H0H5); assay: blockers of MgcRacGAP-driven Rac1 GTP hydrolysis – biochemical, ADP Hunter fluorescence, primary and confirmatory, confirmation (AID 624330); format: functional
T6 sequence (Q9H0H5 whole entry): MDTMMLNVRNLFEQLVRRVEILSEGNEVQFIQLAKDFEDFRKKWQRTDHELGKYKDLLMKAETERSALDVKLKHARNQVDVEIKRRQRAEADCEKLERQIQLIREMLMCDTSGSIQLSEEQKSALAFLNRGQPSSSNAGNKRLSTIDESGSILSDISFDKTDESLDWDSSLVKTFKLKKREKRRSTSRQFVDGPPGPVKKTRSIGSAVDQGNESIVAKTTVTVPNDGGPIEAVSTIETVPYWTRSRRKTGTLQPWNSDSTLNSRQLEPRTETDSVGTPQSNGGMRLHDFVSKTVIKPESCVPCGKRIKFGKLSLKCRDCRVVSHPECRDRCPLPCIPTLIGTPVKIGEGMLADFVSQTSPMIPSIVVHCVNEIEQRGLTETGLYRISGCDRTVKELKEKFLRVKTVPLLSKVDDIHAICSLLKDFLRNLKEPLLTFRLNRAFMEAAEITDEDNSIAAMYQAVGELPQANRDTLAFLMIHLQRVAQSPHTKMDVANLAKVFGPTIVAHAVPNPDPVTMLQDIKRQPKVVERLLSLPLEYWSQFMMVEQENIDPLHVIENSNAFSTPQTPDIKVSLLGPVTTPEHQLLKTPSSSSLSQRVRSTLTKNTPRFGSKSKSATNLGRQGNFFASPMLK

[26] = viability loss in HeLa cells – cytotoxicity control for MgcRacGAP inhibitor project, dose response (AID 624300); format: functional

CCCCn1c(=O)c(C(=O)Nc2cnccn2)c(O)c2ccccc21
Absolute IC50 (XBP1) (X-box-binding protein 1): 10 µM
IC50 (HEK293 [1]): > 20 µM (inactive)
EC50 (HEK293 [2]): 3.1 µM (active)
IC50 (HEK293 [3]): > 20 µM (inactive)
IC50 (Tumor necrosis factor): 4.92 µM (active)
IC50 [4]: 7.68 µM (active)
IC50 (HEK293 [5]): 7.07 µM (active)
IC50 (HEK293 [6]): > 20 µM (inactive)
IC50 (HEK293 [7]): > 20 µM (inactive)
EC50 [8]: 1.72 µM (active)

O=C(Nc1nc2ccc(F)cc2s1)C1CCN(S(=O)(=O)c2cc([N+](=O)[O-])ccc2Cl)CC1
EC50 (H4): 4.7 µM (active)
IC50 [9]: 2.34 µM (active)
IC50 [10]: 2.37 µM (active)
EC50 [11]: 14.7 µM (active)
CC50 [12]: 20.2 µM (active)
IC50 [13]: > 69.5 µM (inactive)
AC50 (INS1): 8.24 µM (active)
IC50 [14]: > 7.72 µM (active)
EC50 [15]: 25.8 µM (active)
CC50 [16]: 12 µM (active)

CCOC(=O)c1c(C)[nH]c(C(=O)N/N=C/c2cc([N+](=O)[O-])ccc2O)c1C
EC50 [17]: 12.1 µM (active)
EC50 [18]: 22.3 µM (active)
EC50 [19]: 0.86 µM (active)
IC50 (Albumin): > 94.1 µM (inactive)
IC50 (Nonstructural protein 1): 44 µM (active)
IC50 [20]: > 100 µM (inactive)
EC50 [21]: 2.33 µM (active)
EC50 (Streptococcus): 2.97 µM (active)
EC50 [22]: 11.4 µM (active)

CC1C(=O)NN=C1C(=O)N/N=C\c1ccc(O)cc1O (configuration not stated)
IC50 [23]: 7.72 µM (active)
EC50 [17]: 8.3 µM (active)
IC50 [24]: 7.32 µM (active)
IC50 [25]: 45.4 µM (active)
IC50 (Nonstructural protein 1): 15.9 µM (active)
CC50 [26]: 100 µM (active)
IC50 [20]: > 100 µM (inactive)
EC50 [22]: 11.3 µM (active)
